pEC50, pIC50: −log10 of the molar value. ≈ marks a conversion by molar mass, not a printed value.
Tests used:
[1] = tested on: Wolbachia in C6/36 (wAlbB) cells; assay: Secondary concentration response HTS (IC50) anti-Wolbachia screen in C6/36 (wAlbB) insect cells; type: cell-based, Wolbachia pipientis wAlbB (in Aedes albopictus C6/36 cells); conditions: Wolbachia, 168 h, 7-day incubation, 10-point concentration range
Experimental: Initially C6/36 (wAlbB) cells (insect cells stably infected with the Wolbachia target) from a single cryopreserved batch were recovered over 7 days prior to plating into 384-well assay ready plates (containing the test compounds), using a semi-automated process allowing for daily batches of ~150 plates, set up 4 days per week for 8 weeks. After a 7-day incubation period with the test compounds the plates were moved into the second fully automated stage (using the Agilent Technologies BioCel system) involving formaldehyde fixation, DNA staining of the insect cell nuclei (Hoechst) for toxicity analysis and antibody staining specific to the intracellular Wolbachia (wBmPAL primary antibody and far-red secondary antibody). In the final stage the fixed and stained plates from stage 2 were processed through automated data acquisition (High Res Biosolutions system, incorporating EnVision™ and acumen® plate readers). This industry standardised assay was then used to screen AstraZeneca’s full library of 1.3 million compounds within 10 weeks. In total this HTS included 30 × 3 week assays covering 3835 × 384-well plates. This primary HTS generated 20,255 hits defined as >80% reduction in Wolbachia with <60% toxicity to the host insect cell (eliminating false positives). This represents an overall hit rate of 1.56%. These compounds are depicted in chemical space in Fig. 2 (black points)[21].
The mosquito (Aedes albopictus) derived cell line C6/36 (ATCC® CRL 1660), stably infected with Wolbachia pipientis wAlbB (C6/36(wAlbB)), was maintained in Leibovitz L15 medium containing 2 mM L-glutamine, 1% nonessential amino acids, 2% tryptose phosphate broth and 20% heat-inactivated foetal bovine serum (FBS) at 26 °C[18]. This screen exclusively used cells from the large-scale cryopreserved batch produced as part of this campaign by culturing the cells at scale before cryopreservation (90% FBS and 10% DMSO). This produced a cell bank of 190 × 1 ml cryovials containing 3 × 10^7 cells per vial.
(§1) On day 0, a single cryovial was recovered and the cells washed before being transferred to a T225 cm^2 flask. After a 7-day recovery Wolbachia infection level (quality control (QC)) was checked by SYTO®11 DNA staining of both the host cell nuclei and intracellular Wolbachia. The end-point read out from the Operetta® high content imaging system (Perkin Elmer) was the percentage of cells infected with Wolbachia. This was obtained from cytoplasm texture analysis by the associated Harmony® software. Cells with a >50% of the population infected with Wolbachia were classed as having a good Wolbachia level and therefore used for screening through addition of 2000 cells per well into assay ready 384-well plates containing the test compounds. […] Each plate included on-board controls; vehicle/DMSO (total/maximum Wolbachia signal) or doxycycline 5 µM (null/minimum Wolbachia signal), resulting in single shot screening of 352 compounds per plate for the primary screen. […] QC plates were also created including full columns of the following controls; DMSO (total/max), 5 μM doxycycline (null/min), as well as 50 nM doxycycline (reference/medium Wolbachia signal). Daily batches contained ~150 compound plates in addition to the QC plates. Each compound plate was foil sealed before incubation for 7 days at 26 °C, 95% humidity and atmospheric air.
After 7 days of drug incubation, the plates were loaded into the fully automated BioCel system which performed the following additions; fixation and DNA staining (1.8% formaldehyde + 0.6 µg/ml Hoechst 33342, 20 min), permeabilisation (80 μl of PBS + 0.25% Triton-X 100, 30 min), blocking (PBS + 6% BSA, 40 min), overnight incubation in the Wolbachia-specific anti-wBmPAL primary antibody[34] […]

[2] = tested on: THP-1 cells; assay: Mammalian cell viability counter-screen (CellTiter-Blue); type: cell-based, human; conditions: Homo sapiens, 48 h, read-out: HTS IC50 mammalian toxicity
Experimental: The human monocytic THP-1 cell line (ATCC® TIB-202) used for mammalian cytotoxicity evaluation was routinely cultured in roller bottles. Growth media consisted of RPMI 1640 supplemented with 10% FBS and 2 mM L-glutamine. Cells were maintained at 37 °C with 95% humidity in 5% CO2 in a shaking incubator.
All compounds selected for secondary IC50 screen were tested in parallel for mammalian cell viability using the CellTiter-Blue® Cell Viability Assay. THP1 cells were removed from culture and plated at 1 × 10^4 cells/well (40 µl) into 384-well assay ready plates and incubated at 37 °C, 5% CO2 for 48 h at 95% humidity. After the addition of CellTiter-Blue Viability reagent (8 µl of a 1:6 dilution) the assay plates were incubated for a further 2 h before fluorescence detected using a PerkinElmer EnVision™ plate reader.

[3] = tested on: Wolbachia in C6/36 (wAlbB) cells; assay: Confirmatory re-assessment in the insect cell screen (cell assay EC50); type: cell-based, Wolbachia pipientis wAlbB (in Aedes albopictus C6/36 cells); conditions: Wolbachia, C6/36; insect cell screen, re-sourced or re-synthesised samples
Excerpt: To further validate the hit molecules from these 9 clusters, samples were sourced either from the AstraZeneca compound inventory or through re-synthesis. All 18 samples were characterised by nuclear magnetic resonance (NMR) and mass spectroscopy to confirm their chemical structures and by HPLC/LCMS to establish their purity (Supplementary Table 5 and Supplementary Data 1). These samples were also subject to confirmatory re-assessment in both the insect cell screen and Mf assays for anti-Wolbachia potency alongside confirmation of DMPK properties (LogD7.4, aqueous solubility in pH 7.4 PBS, human microsomal turnover, rat hepatocyte turnover and human plasma protein binding) (Fig. 4, Supplementary Figure 1 and Supplementary Table 4).
as §1

[4] = tested on: Wolbachia within Brugia malayi Mf; assay: B. malayi microfilarial (Mf) in vitro anti-Wolbachia assay (wsp:gst qPCR); type: cell-based; conditions: Brugia malayi, 144 h; B. malayi Mf, 6 days; read-out: Mf EC50
Experimental: The Mf were obtained by peritoneal lavage, using a catheter, of gerbils (Meriones unguiculatus) harbouring a patent infection of B. malayi. Mf were purified using a PD-10 desalting column (Fisher), centrifuged (311 RCF for 5 min at room temperature) before the addition of 8000 Mf/well of a 96-well plate (100 µl per well) in complete media consisting of RPMI supplemented with 10% FBS, 1% penicillin streptomycin and 1% amphotericin B. […] Each plate contained doxycycline (5 µM) and DMSO controls. After incubation at 37 °C for 6 days in 5% CO2, visual assessment of Mf motility was performed and scored from 0 to 4 per well (where 0 = no movement and 4 = highly motile). DNA extraction per sample was performed using the QIAmp DNA Mini Kit before quantitative PCR was performed to obtain the ratio of Wolbachia Surface Protein gene copy number (wsp) to Glutathione S-Transferase gene copy number (gst)[36]. The DNA was amplified using the primers as indicated in Supplementary Table 6.
(§2) The wsp:gst ratio data allowed for normalisation of the Wolbachia level to the Mf biomass for each well. The change in wsp:gst for each compound compared to the DMSO control was calculated before normalisation to the onboard doxycycline control to allow for inter-assay comparison.

[5] = Rat hepatocyte clearance; type: in vitro ADME
Excerpt: (§3) The DMPK data used for triaging compounds, including LogD7.4, aqueous solubility, plasma protein binding, microsome and hepatocyte clearance measurements, were generated using the standard AstraZeneca UK high-throughput platform[37],[38].

[6] = Human microsome clearance; type: in vitro ADME; conditions: human, human microsomes
Excerpt: as §3

[7] = LogD7.4; type: physicochemical; conditions: pH 7.4
Excerpt: as §3

[8] = Aqueous solubility in pH 7.4 PBS; type: physicochemical; conditions: PBS pH 7.4, aqueous buffer; pH 7.4 PBS; read-out: Aqueous solubility in pH7.4 PBS
Excerpt: as §3

[9] = Human plasma protein binding; type: in vitro ADME; conditions: plasma
Excerpt: as §3

[10] = tested on: Wolbachia within Brugia malayi Mf; assay: Anti-Wolbachia time-kill analysis (timed wash-out) in B. malayi Mf; type: cell-based; conditions: for Exposure time to achieve a maximal Wolbachia reduction: 10x EC50, maximal reduction 70–90% normalised to vehicle control
Excerpt: To compare the dynamics of the in vitro phenotype of our hits with existing anti-Wolbachia therapies, we employed a timed wash-out strategy (Fig. 5) at 10x EC50 to establish the anti-Wolbachia time-kill kinetics of the selected chemotypes (1A–5A), using five replicates per compound. […].
Fig. 5 Anti-Wolbachia time-kill analysis. Representatives from the top five clusters (1A–5A), as well as established anti-Wolbachia antibacterials (doxycycline (white), minocycline (grey), rifampicin (black)) were assessed after exposure for 1 day and 2 days before washing and further incubation until the standard 6-day read out. wsp:gst ratio was normalised to the DMSO vehicle control resulting in a read out of mean percentage reduction from control. Doxycycline day 6 treatment represents the result for exposure to doxycycline at 5 µM for a full 6 days (no wash). The box extends from the 25th to the 75th percentile with the median presented by the central line. The whiskers are set at the minimum and maximum therefore indicating the range from five replicates. The cluster number is indicated by colour: cluster 1 (dark blue), 2 (magenta), 3 (teal), 4 (dark gold), and 5 (light blue)
The Mf were obtained by peritoneal lavage, using a catheter, of gerbils (Meriones unguiculatus) harbouring a patent infection of B. malayi. Mf were purified using a PD-10 desalting column (Fisher), centrifuged (311 RCF for 5 min at room temperature) before the addition of 8000 Mf/well of a 96-well plate (100 µl per well) in complete media consisting of RPMI supplemented with 10% FBS, 1% penicillin streptomycin and 1% amphotericin B. Compounds were diluted in complete media and 100 µl was added per well, providing a final concentration of 5 µM, with five replicates per compound. Each plate contained doxycycline (5 µM) and DMSO controls. After incubation at 37 °C for 6 days in 5% CO2, visual assessment of Mf motility was performed and scored from 0 to 4 per well (where 0 = no movement and 4 = highly motile). DNA extraction per sample was performed using the QIAmp DNA Mini Kit before quantitative PCR was performed to obtain the ratio of Wolbachia Surface Protein gene copy number (wsp) to Glutathione S-Transferase gene copy number (gst)[36]. The DNA was amplified using the primers as indicated in Supplementary Table 6.
as §2

Compound | pIC50 [1] | pIC50 [2] | pEC50 [3] | pEC50 [4] | Rat hepatocytes CLint [5] | microsomal CLint [6] | logD [7] | solubility [8] | fraction unbound [9] | Wolbachia reduction after a single day of exposure ([10]; 10x EC50, 1 day exposure, wash, 6-day read out, normalised to vehicle control) | Exposure time to achieve a maximal Wolbachia reduction [10]
CN(Cc1cccc(Br)c1)S(=O)(=O)c1ccc2c(c1)C(=O)NCC2 [8B, N-(3-bromobenzyl)-N-methyl-1-oxo-1,2,3,4-tetrahydroisoquinoline-7-sulfonamide] | 6.27 | < 4.51 | 6.06 | < 5.30 | > 300 µl/min/1x106 cells | > 300 µL/min/mg | 3.1 | 6 µM (≈ 2.46 µg/mL) | 0.034 | – | –
O=C(Cc1cc(F)cc(F)c1)NCC(=O)NC1C(=O)Nc2ccccc2SC1c1ccccc1 (centres unmarked) [9A, 2-(3,5-difluorophenyl)-N-(2-oxo-2-((4-oxo-2-phenyl-2,3,4,5-tetrahydrobenzo[b][1,4]thiazepin-3-yl)amino)ethyl)acetamide] | 6.74 | < 4.51 | 6.74 | < 5.30 | 28.0 µl/min/1x106 cells | 228 µL/min/mg | 3 | 105 µM (≈ 50.6 µg/mL) | 0.12 | – | –
O=C(NCCCn1ccnc1)NC1C(=O)Nc2ccccc2SC1c1cc(F)ccc1F (centres unmarked) [9B, 1-(3-(1H-imidazol-1-yl)propyl)-3-(2-(2,5-difluorophenyl)-4-oxo-2,3,4,5-tetrahydrobenzo[b][1,4]thiazepin-3-yl)urea] | 6.32 | < 4.51 | 6.32 | 5.57 | 171.6 µl/min/1x106 cells | > 300 µL/min/mg | 3.8 | 43 µM (≈ 19.7 µg/mL) | 0.016 | – | –
C[C@H]1c2cccc(O)c2C(=O)C2=C(O)[C@]3(O)C(=O)C(C(N)=O)=C(O)[C@@H](N(C)C)[C@@H]3[C@@H](O)[C@@H]21 [doxycycline, reference compound] | – | – | – | 6.60 | – | – | – | – | – | 9% | > 2 days
CN(C)c1ccc(O)c2c1C[C@H]1C[C@H]3[C@H](N(C)C)C(O)=C(C(N)=O)C(=O)[C@@]3(O)C(O)=C1C2=O [minocycline, reference compound] | – | – | – | – | – | – | – | – | – | – | > 2 days
CO[C@H]1/C=C/O[C@@]2(C)Oc3c(C)c(O)c4c(O)c(c(/C=N/N5CCN(C)CC5)c(O)c4c3C2=O)NC(=O)/C(C)=C\C=C\[C@H](C)[C@H](O)[C@@H](C)[C@@H](O)[C@@H](C)[C@H](OC(C)=O)[C@@H]1C [rifampicin, reference compound] | – | – | – | – | – | – | – | – | – | – | > 2 days

Source: publication PMC6315057, “Industrial scale high-throughput screening delivers multiple fast acting macrofilaricides” (Nature Communications, 2019)
